Reference: patent publication US20070020195A1, “Nasally administered appetite suppressants” (priority 2005, published 2007)
Several values for one entry are separate records, joined by “and”; a condition that tells them apart may be missing. Identical values can stand only once.

Tests used:
[1] = cited from earlier work
[2] = Dose-escalation food intake trial in obese subjects with Universal Eating Monitor (Examples 2-5); format: in vivo, human
[3] = 70 kg adult; cited from earlier work
[4] = applied topically; cited from earlier work
[5] = Double-blind crossover food intake study, intranasal lidocaine vs saline before a fried chicken meal; format: in vivo, human; conditions: four subjects
Experimental: Three males and one female between 23 and 60 years of age with BMI's less than 25 kg/m2 participated in a study of food intake. The subjects presented to the food intake laboratory at noon after an overnight fast except for water from 9 pm the prior night on two occasions a week apart. They had 10 mg (0.5 cc) of lidocaine or 0.5 cc normal saline administered in each nostril 20 minutes before presentation of a meal consisting of fried chicken pieces and water. They were allowed to eat and drink as much or as little as they wished over a 20-minute period, and there were more chicken pieces than they could reasonably be expected to eat at one sitting. The order of the lidocaine and saline was balanced and the study was performed in a double-blind fashion.
The four subjects consumed 15%, 11%, 27% and 33% less on the lidocaine week compared to the placebo week. […] Sibutramine, an obesity drug, gives an 8% weight loss at 6 months and causes a 12% decrease in food intake.

In the case of `CC(C)CC(N(C)C)C1(c2ccc(Cl)cc2)CCC1` (stereo not shown) [Sibutramine], the weight loss ([1]; at 6 months) is listed as 8% and the “decrease in food intake” value ([1]; in vivo) is listed as 12%.

In the case of leptin, the anorexiant effect ([2]; about 20 mg per day leptin added to lidocaine, Example 5) is reported as “further anorexiant effect”.

In the case of `Cn1c(=O)c2c(ncn2C)n(C)c1=O` [caffeine], the “effect on energy expenditure” value ([2]; about 200 mg caffeine orally or nasally added to lidocaine, Example 4) is reported as “increasing energy expenditure”.

In the case of `CCN(CC)CC(=O)Nc1c(C)cccc1C` [lidocaine], the “maximum safe dosage for topical anesthetic” value [3] is listed as 500 mg, the duration of anesthesia [4] is listed as 30 to 45 min and the “time to peak anesthesia” value [4] is listed as 2 to 5 min. For the same compound, the “reduction in food consumed on lidocaine week compared to placebo week, individual subjects” value ([5]; 10 mg (0.5 cc) lidocaine in each nostril 20 minutes before meal, BMI less than 25 kg/m2) was 15% and 11% and 27% and 33%, the “overall reduction in food intake” value ([5]; 10 mg lidocaine in each nostril 20 minutes before meal, p<0.02) was 21.5%+10.2% and the “food consumption with escalating doses” value ([2]; 2.5, 10 and 25 mg lidocaine per nostril vs saline, BMI 30-40, Example 2) was “reduction in food consumption”.
